{"source": "patent US20140256687A1", "about": "“Agricultural and Horticultural Insecticide Composition and Method for Using the Same” (priority 2011, published 2014)", "key": {"[1]": {"test_system": "Plutella xylostella", "test": "Control effect on Plutella xylostella (cabbage, greenhouse spray test)", "format": "in vivo", "settings": "spray 800 L/ha, g a.i./ha: flubendiamide 60, dichlorvos 400, profenofos 320; for Number of surviving larvae 2 days after treatment / Number of surviving larvae 6 days after treatment: 3rd-instar larvae on Brassica oleracea var. capitata, three plants per plot; for Control effect (%) 2 days after treatment / Control effect (%) 6 days after treatment: formula 1"}, "[2]": {"test_system": "Chilo suppressalis", "test": "Control effect on Chilo suppressalis (potted rice spray test)", "format": "in vivo", "settings": "spray 400 L/ha, g a.i./ha: flubendiamide 30, dichlorvos 393, profenofos 500; for Percentage of control (%): control effect by formula 2; for Percentage of control (%) / Percentage of damaged stems (%): 29 days after treatment; for Number of stems at 29 days after treatment, Damaged stems / Number of stems at 29 days after treatment, Normal stems: rice (Kinmaze) in pots, 60 larvae per pot", "description": "Rice plants (variety: Kinmaze) were planted in 2-L pots and grown to a height of about 80 cm (about 82 days after transplantation, 18 to 25 sheaths). The depth of paddy water in each pot was adjusted to 4 cm and then spray treatment to the rice plants was conducted with an agrochemical solution diluted to a predetermined concentration in an amount equivalent to 400 L/ha. After the spray-treated plants were air-dried, each pot was covered with a vinyl chloride cylindrical cover 30 cm in height. At 1 day before the treatment and at 5 and 12 days after the treatment, 20 larvae of the test insect pest Chilo suppressalis were released into each of the covered pots (60 larvae in total per pot). At 29 days after the treatment, in each pot, the number of damaged stems of the rice plants was counted, the percentage of damaged stems was calculated, and from this percentage, the control effect was calculated according to formula 2. In addition, the expected value was calculated according to Colby's equation in the same manner as in Test Example 1.\nControl effect (%)=100−(the percentage of damaged stems in a treatment plot/the percentage of damaged stems in a non-treatment plot)×100 <Formula 2>"}}, "data": [{"compound": "COP(=O)(OC)OC=C(Cl)Cl", "note": "[Dichlorvos, 2,2-dichlorovinyl dimethyl phosphate]", "values": [{"measurement": "Number of surviving larvae 2 days after treatment", "setting": "[1]", "value": 188}, {"measurement": "Number of surviving larvae 6 days after treatment", "setting": "[1]", "value": 212}, {"measurement": "Control effect (%) 2 days after treatment", "setting": "[1]", "value": 16, "unit": "%"}, {"measurement": "Control effect (%) 6 days after treatment", "setting": "[1]", "value": 0, "unit": "%"}, {"measurement": "Percentage of control (%)", "setting": "[2]", "value": 7.5, "unit": "%"}, {"measurement": "Number of stems at 29 days after treatment, Damaged stems", "setting": "[2]", "value": 38}, {"measurement": "Number of stems at 29 days after treatment, Normal stems", "setting": "[2]", "value": 7}, {"measurement": "Percentage of damaged stems (%)", "setting": "[2]", "value": 84.4, "unit": "%"}]}, {"compound": "Cc1cc(C(F)(C(F)(F)F)C(F)(F)F)ccc1NC(=O)c1cccc(I)c1C(=O)NC(C)(C)CS(C)(=O)=O", "note": "[Flubendiamide, 3-iodo-W-(2-mesyl-1,1-dimethylethyl)-N-{4-[1,2,2,2-tetrafluoro-1-(trifluoromethyl)ethyl]-o-tolyl}phthalamide]", "values": [{"measurement": "Number of surviving larvae 2 days after treatment", "setting": "[1]", "value": 307}, {"measurement": "Number of surviving larvae 6 days after treatment", "setting": "[1]", "value": 56}, {"measurement": "Control effect (%) 2 days after treatment", "setting": "[1]", "value": 39, "unit": "%"}, {"measurement": "Control effect (%) 6 days after treatment", "setting": "[1]", "value": 88, "unit": "%"}, {"measurement": "Percentage of control (%)", "setting": "[2]", "value": 54.0, "unit": "%"}, {"measurement": "Number of stems at 29 days after treatment, Damaged stems", "setting": "[2]", "value": 21}, {"measurement": "Number of stems at 29 days after treatment, Normal stems", "setting": "[2]", "value": 29}, {"measurement": "Percentage of damaged stems (%)", "setting": "[2]", "value": 42.0, "unit": "%"}]}, {"compound": "CCCSP(=O)(OCC)Oc1ccc(Br)cc1Cl", "note": "(stereo not drawn) [Profenofos, O-4-bromo-2-chlorophenyl O-ethyl S-propyl phosphorothioate]", "values": [{"measurement": "Number of surviving larvae 2 days after treatment", "setting": "[1]", "value": 121}, {"measurement": "Number of surviving larvae 6 days after treatment", "setting": "[1]", "value": 44}, {"measurement": "Control effect (%) 2 days after treatment", "setting": "[1]", "value": 48, "unit": "%"}, {"measurement": "Control effect (%) 6 days after treatment", "setting": "[1]", "value": 80, "unit": "%"}, {"measurement": "Percentage of control (%)", "setting": "[2]", "value": 27.7, "unit": "%"}, {"measurement": "Number of stems at 29 days after treatment, Damaged stems", "setting": "[2]", "value": 35}, {"measurement": "Number of stems at 29 days after treatment, Normal stems", "setting": "[2]", "value": 18}, {"measurement": "Percentage of damaged stems (%)", "setting": "[2]", "value": 66.0, "unit": "%"}]}]}
